System: yeast genes (level of expressed mRNA)
Assay: DNA chip analysis of expressed mRNA of yeast genes after 2 h culture with a toxic chemical substance
Assay type: cell-based, Saccharomyces cerevisiae S288C
Protocol: Yeast (Saccharomyces cerevtisiae S288C (α SUC2mal mel gap2 CUP1)) were cultured at 25° C. on YPD medium (yeast extract 1%, polypepton 2%, glucose 2%). One of toxic chemical substances was added to the cell at logarithmic growth phase, and the cell was further cultured for two hours. Cell was cultured without any chemical substance in the same condition, and was used as control. Concentrations of the chemical substances were defined to inhibit the growth of the yeast but not lead to death.
After the completion of cultivation, the culture was centrifuged to collect the cells. To the cells, sodium acetate buffer (50 mM sodium acetate, 10 mM EDTA, 1% SDS) was added, and the mixture was shaken at 65° C. for five minutes, followed by returning to room temperature, and obtaining the supernatant, which procedure was repeated two times. To the supernatant, ½ amount of a solution of phenol/chloroform was added, and the mixture was centrifuged to give a supernatant, which was added with an equal amount of chloroform, and the mixture was centrifuged to give a supernatant. To the supernatant, an equal amount of isopropanol containing 0.3 M sodium acetate was added, and the mixture was allowed to stand at room temperature for 30 minutes, after which the mixture was centrifuged to give a sediment of the whole RNAs. Seventy % ethanol was added to the sediment, and the mixture was again centrifuged to give a sediment, which was then dried and dissolved in water. mRNA was isolated from the whole RNAs as followings. In view of the fact that a poly A chain is attached to the 3′ terminus of mRNA, a polynucleotide having a poly T structure which was immobilized on the surface of latex beads was used to trap the mRNA, and then the mRNA was washed and eluted with spine column (Oligotex-dT30<Super>mRNA Purification Kit, Takara). Reverse transcription of the mRNA was conducted with a reverse transcriptase (Super Script II Reverse Transcriptase; catalogue No. 18064-014, GibcoBRL) using fluorescence-labeled nucleotides to give cDNAs that were introduced with Cy3-dUTP or Cy5-dUTP during the reverse transcription.
The labeled cDNAs were dissolved in TE buffer (10 mM Tris-HCl/1 mM EDTA, pH8.0), and the solution was dropped on the DNA chip containing the whole genes of yeast (DNA Chip Research Inc. Japan) so that the cDNAs were hybridized on the DNA chip at 65° C. for over 12 hours. The fluoresces intensity of the DNA chip was read with a scanner, and the ratio relative to the fluorescence intensity resulting from the absence of chemical substance was estimated as the following, which is shown in Tables 1 to 9: [formula]
In the Tables, “Intensity” indicated in the rightmost column is a value of the level of expressed mRNA of each gene in control cells as divided by the average level of the expressions of the whole genes.

Structure (SMILES): Oc1cc(Cl)c(Cl)cc1Cl [(6), 2,4,5-trichlorophenol]
- The level of expressed mRNA in the presence of chemical substance/The level of expressed mRNA in the absence of chemical substance (yeast gene YAR010C): 2.3
- The level of expressed mRNA in the presence of chemical substance/The level of expressed mRNA in the absence of chemical substance (yeast gene YBL005W-A): 1.2
- The level of expressed mRNA in the presence of chemical substance/The level of expressed mRNA in the absence of chemical substance (yeast gene YBL041W): 1.7
- The level of expressed mRNA in the presence of chemical substance/The level of expressed mRNA in the absence of chemical substance (yeast gene YBL043W): 26.9
- The level of expressed mRNA in the presence of chemical substance/The level of expressed mRNA in the absence of chemical substance (yeast gene YBL078C): 2.4
- The level of expressed mRNA in the presence of chemical substance/The level of expressed mRNA in the absence of chemical substance (yeast gene YBR214W): 0.8
- The level of expressed mRNA in the presence of chemical substance/The level of expressed mRNA in the absence of chemical substance (yeast gene YCL020W): 1.0
- The level of expressed mRNA in the presence of chemical substance/The level of expressed mRNA in the absence of chemical substance (yeast gene YCL027W): 1.3
- The level of expressed mRNA in the presence of chemical substance/The level of expressed mRNA in the absence of chemical substance (yeast gene YCR004C): 1.8
- The level of expressed mRNA in the presence of chemical substance/The level of expressed mRNA in the absence of chemical substance (yeast gene YCR071C): 2.5
- The level of expressed mRNA in the presence of chemical substance/The level of expressed mRNA in the absence of chemical substance (yeast gene YCR088W): 2.0
- The level of expressed mRNA in the presence of chemical substance/The level of expressed mRNA in the absence of chemical substance (yeast gene YDL008W): 2.7
- The level of expressed mRNA in the presence of chemical substance/The level of expressed mRNA in the absence of chemical substance (yeast gene YDL238C): 2.1
- The level of expressed mRNA in the presence of chemical substance/The level of expressed mRNA in the absence of chemical substance (yeast gene YDR055W): 3.9
- The level of expressed mRNA in the presence of chemical substance/The level of expressed mRNA in the absence of chemical substance (yeast gene YDR084C): 2.1
- The level of expressed mRNA in the presence of chemical substance/The level of expressed mRNA in the absence of chemical substance (yeast gene YDR085C): 2.1
- The level of expressed mRNA in the presence of chemical substance/The level of expressed mRNA in the absence of chemical substance (yeast gene YDR104C): 1.7
- The level of expressed mRNA in the presence of chemical substance/The level of expressed mRNA in the absence of chemical substance (yeast gene YDR115W): 2.3
- The level of expressed mRNA in the presence of chemical substance/The level of expressed mRNA in the absence of chemical substance (yeast gene YDR259C): 0.5
- The level of expressed mRNA in the presence of chemical substance/The level of expressed mRNA in the absence of chemical substance (yeast gene YDR315C): 9.4
- The level of expressed mRNA in the presence of chemical substance/The level of expressed mRNA in the absence of chemical substance (yeast gene YDR358W): 2.5
- The level of expressed mRNA in the presence of chemical substance/The level of expressed mRNA in the absence of chemical substance (yeast gene YDR388W): 1.0
- The level of expressed mRNA in the presence of chemical substance/The level of expressed mRNA in the absence of chemical substance (yeast gene YDR432W): 0.6
- The level of expressed mRNA in the presence of chemical substance/The level of expressed mRNA in the absence of chemical substance (yeast gene YDR481C): 0.9
- The level of expressed mRNA in the presence of chemical substance/The level of expressed mRNA in the absence of chemical substance (yeast gene YDR510W): 1.0
- The level of expressed mRNA in the presence of chemical substance/The level of expressed mRNA in the absence of chemical substance (yeast gene YEL042W): 0.5
- The level of expressed mRNA in the presence of chemical substance/The level of expressed mRNA in the absence of chemical substance (yeast gene YEL066W): 2.2
- The level of expressed mRNA in the presence of chemical substance/The level of expressed mRNA in the absence of chemical substance (yeast gene YER039C): 1.6
- The level of expressed mRNA in the presence of chemical substance/The level of expressed mRNA in the absence of chemical substance (yeast gene YER107C): 2.5
- The level of expressed mRNA in the presence of chemical substance/The level of expressed mRNA in the absence of chemical substance (yeast gene YER130C): 2.7
- The level of expressed mRNA in the presence of chemical substance/The level of expressed mRNA in the absence of chemical substance (yeast gene YFL028C): 1.7
- The level of expressed mRNA in the presence of chemical substance/The level of expressed mRNA in the absence of chemical substance (yeast gene YFL043C): 1.8
- The level of expressed mRNA in the presence of chemical substance/The level of expressed mRNA in the absence of chemical substance (yeast gene YGL158W): 0.4
- The level of expressed mRNA in the presence of chemical substance/The level of expressed mRNA in the absence of chemical substance (yeast gene YGL229C): 2.2
- The level of expressed mRNA in the presence of chemical substance/The level of expressed mRNA in the absence of chemical substance (yeast gene YGR136W): 1.1
- The level of expressed mRNA in the presence of chemical substance/The level of expressed mRNA in the absence of chemical substance (yeast gene YGR189C): 0.5
- The level of expressed mRNA in the presence of chemical substance/The level of expressed mRNA in the absence of chemical substance (yeast gene YGR213C): 4.1
- The level of expressed mRNA in the presence of chemical substance/The level of expressed mRNA in the absence of chemical substance (yeast gene YGR257C): 2.1
- The level of expressed mRNA in the presence of chemical substance/The level of expressed mRNA in the absence of chemical substance (yeast gene YHR004C): 2.0
- The level of expressed mRNA in the presence of chemical substance/The level of expressed mRNA in the absence of chemical substance (yeast gene YHR071W): 2.0
- The level of expressed mRNA in the presence of chemical substance/The level of expressed mRNA in the absence of chemical substance (yeast gene YHR139C): 1.9
- The level of expressed mRNA in the presence of chemical substance/The level of expressed mRNA in the absence of chemical substance (yeast gene YHR142W): 1.2
- The level of expressed mRNA in the presence of chemical substance/The level of expressed mRNA in the absence of chemical substance (yeast gene YIL123W): 0.5
- The level of expressed mRNA in the presence of chemical substance/The level of expressed mRNA in the absence of chemical substance (yeast gene YIL140W): 0.5
- The level of expressed mRNA in the presence of chemical substance/The level of expressed mRNA in the absence of chemical substance (yeast gene YJL073W): 2.0
- The level of expressed mRNA in the presence of chemical substance/The level of expressed mRNA in the absence of chemical substance (yeast gene YJL089W): 1.6
- The level of expressed mRNA in the presence of chemical substance/The level of expressed mRNA in the absence of chemical substance (yeast gene YJL116C): 3.4
- The level of expressed mRNA in the presence of chemical substance/The level of expressed mRNA in the absence of chemical substance (yeast gene YJR004C): 1.2
- The level of expressed mRNA in the presence of chemical substance/The level of expressed mRNA in the absence of chemical substance (yeast gene YJR086W): 1.9
- The level of expressed mRNA in the presence of chemical substance/The level of expressed mRNA in the absence of chemical substance (yeast gene YKL008C): 3.8
